In general, ED50 refers to the midpoint of the dose-response relation. High values mean weaker potency, low ones greater potency.

ED50 and toxic effects data for seven compounds are collected here from EP0050407A1, “3,5-Disubstituted-1,2,4-triazole compounds, processes for their preparation and pharmaceutical compositions containing them” (GLAXO GROUP LIMITED, priority 1980, dated 1982).

The subject of data set [1] is secretion of gastric acid. As to the kind of experiment: perfused rat stomach test (inhibition of gastric acid secretion stimulated via histamine receptors). The class given is in vivo. An excerpt: Certain novel heterocyclic derivatives have now been found which have potent activity as H2-antagonists.
A further data set relates to rats. Description: toxicity in rats. The class given is in vivo.
The mark [2] stands for this setting: administered intravenously to rats at doses of at least twice their ED50 values.

Counter-ions that a name gives are not always drawn. Some results are limits rather than exact numbers.

`OCCc1n[nH]c(CCCCOc2cccc(CN3CCCCC3)c2)n1` [2(a), 5-[4-[3-(1-Piperidinylmethyl)phenoxy]butyl]-1H-1,2,4-triazole-3-(2-ethanol) maleate (1:2)] registered an ED50 in data set [1] of under 0.63 mg/kg.
On to `OCc1n[nH]c(CCCCOc2cccc(CN3CCCCC3)c2)n1` [Example 6], for which the ED50 in data set [1] was under 0.63 mg/kg. Also, the toxic effects entry with rats (administered orally to rats at a dose of 400 mg/kg) was “no toxic effects”.
As for `CS(=O)(=O)Cc1n[nH]c(CCCCOc2cccc(CN3CCCCC3)c2)n1` [Example 7, 3-(Methylsulphonyl)methyl-5-[4-[3-(1-piperidinylmethyl)phenoxy]butyl]-lH-l,2,4-triazole], the ED50 in data set [1] was under 0.63 mg/kg. In addition, in the data set on rats (setting [2]), the toxic effects entry is on record as “no toxic effects”.
On to `ON=Cc1n[nH]c(CCCCOc2cccc(CN3CCCCC3)c2)n1` [Example 9, 5-[4-[3-(1-Piperidinylmethyl)phenoxy]butyl]-1H-1,2,4,- triazole-3-carboxaldehyde oxime], for which the ED50 in data set [1] is under 0.63 mg/kg. The toxic effects result in the data set on rats (setting [2]) is reported as “no toxic effects”.
`CC(=O)OCc1n[nH]c(CCCCOc2cccc(CN3CCCCC3)c2)n1` [Example 3, 5-[4-[3-(1-Piperidinylmethyl)phenoxy]butyl]-1H-1,2,4-triazole-3-methanol acetate(ester)fumarate] had a 50% effective dose (ED50) in data set [1] of under 0.63 mg/kg.
In data set [1], `O=Cc1n[nH]c(CCCCOc2cccc(CN3CCCCC3)c2)n1` [Example 8, 5-[4-[3-(1-Piperidinylmethyl)phenoxy]butyl]-1H-1,2,4-triazole-3-carboxaldehyde hydrate] returned an ED50 of under 0.63 mg/kg.
Turning to `CC(O)c1n[nH]c(CCCCOc2cccc(CN3CCCCC3)c2)n1` (stereo not shown) [2(e), 5-[4-[3-(1-piperidinylmethyl)phenoxy]butyl]-1H-1,2,4-triazole-3-(1-ethanol)oxalate (1:2)], the ED50 in data set [1] is under 0.63 mg/kg.
